Data as given in US20230293526A1, “METHOD FOR TREATING CANCER WITH A REVERSE TRANSCRIPTASE INHIBITOR” (PrimeFour Therapeutics, Inc., priority 2020, published 2023).

Legend:
[1] = tested on: human LINE-1; experiment: Human LINE-1 (L1) retrotransposition dual-luciferase reporter assay in HeLa cells; assay type: cell-based; details: Homo sapiens, HeLa, 72 h, read-out: Human LINE-1 IC50 (Human L1 activity inhibition)
Method: Representative compounds were tested for inhibition of retrotransposition activity of human LINE-1 (L1) retrotransposition reporter assay in HeLa cells according to the following procedure.
Human Cervical Adenocarcinoma Cells (HeLa) were cultured in Dulbecco's Modified Eagle's Medium (DMEM) containing 4500 mg/L glucose, L-glutamine, sodium pyruvate and sodium bicarbonate, supplemented with 10% of heat inactivated fetal bovine serum (FBS). Cells were grown at 37° C. in an atmosphere of 5% CO2. The dual luciferase-encoding plasmid pYX017 was provided by Prof Wenfeng An (Xie, et al., 2011, Nucleic Acids Res).
The reporter assay was performed in 96-well white, optical bottom plates (Thermo Fisher, 165306). 24 hours prior to transfection, HeLa cells were seeded in a density of 2,500 cells per well, in 50 μL of DMEM, 10% FBS media volume. Cells were incubated at 37° C. in an atmosphere of 5% CO2. Seeding was optimized to achieve approximately 30% cell confluency on the day of transfection. A transfection mix was prepared by combining transfection reagent FuGENE® HD (Promega, E2311) and plasmid DNA (100 ng per well) in a 3:1 ratio, in OpiMEM media (Thermo Fisher, 31985062). Next, 5 μL of the transfection mix was combined with 20 μL of DMEM, 10% FBS media, and 25 μL of this mix was added into each well of an assay plate. In each assay plate one column remained untransfected to serve as a blank luminescence signal.
Serial dilution of test compounds was performed in DMSO and transferred to medium. Next, 25 μL of media-diluted compounds series were transferred to an assay plate containing cells and transfection media. The final concentration of DMSO in treated wells was 0.2%. Serial dilutions of compounds were added to an assay plate immediately after transfection. Compounds were tested in triplicates. The assay plate was then incubated with transfection reagent and compounds at 37° C. in an atmosphere of 5% CO2 for 72 hours.
Luciferase reporter activity was quantified with the Dual-Luciferase® Reporter Assay System (Promega) following the manufacturer's manual, with a passive lysis buffer volume increased to 30 μL and lysis incubation time increased to 20 min at room temperature with gentle shaking, to ensure complete cell lysis. Luminescence was measured using a SpectraMax i3×Multi-Mode Microplate Reader, with integration times of 100 ms and 10 ms applied to measure FLuc and RLuc signals, respectively. Relative LNE-1 activity was calculated as Firefly signal/Renilla signal*10,000. In order to determine IC50 values for each compound, dose response data were fit to a logistic using non-linear regression.

[2] = tested on: cancer cell lines; experiment: Cancer cell proliferation activity of representative nucleosides, CellTiterGlo 72 h (Example 7, Tables 8 and 9); assay type: cell-based
Summary of the method: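 Percent viability was set against 0.1% DMSO (100%) and 10 μM staurosporine (0%), with signal from CellTiterGlo luminescence. Dose-response treatment began one day after seeding and lasted 72 h at 37° C under 5% or 10% CO2, with 0.1% final DMSO.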

Compound: C#C[C@]1(CO)O[C@@H](n2cnc3c(N)nc(F)nc32)C[C@@H]1O [Islatravir (EFdA), Islatravir, reference compound]
- IC50 [1]: 1.1 nM
- IC50 ([2]; 72 h, 5637, 72 h (Table 9)): 2.57 µM
- IC50 ([2]; 72 h, CLS439, 72 h (Table 9)): > 50 µM
- IC50 ([2]; 72 h, HS729, 72 h (Table 9)): 4.24 µM
- IC50 ([2]; 72 h, J82, 72 h (Table 9)): 5.43 µM
- IC50 ([2]; 72 h, JAR, 72 h (Table 9)): 5.41 µM
- IC50 ([2]; 72 h, MT3, 72 h (Table 9)): 2.64 µM
- IC50 ([2]; 72 h, PC3, 72 h (Table 9)): 3.12 µM
- IC50 ([2]; 72 h, RD, 72 h (Table 9)): 3.3 µM
- IC50 ([2]; 72 h, T24, 72 h (Table 9)): 2.68 µM
- IC50 ([2]; Homo sapiens, 22Rv1, 72 h, 22RV1, 72 h (Table 9)): > 50 µM
- IC50 ([2]; Homo sapiens, 786-0, 72 h, 786O, 72 h (Table 9)): 3.31 µM
- IC50 ([2]; Homo sapiens, A204, 72 h, A204, 72 h (Table 9)): 1.46 µM
- IC50 ([2]; Homo sapiens, A549, 72 h, A549, 72 h (Table 9)): 2.98 µM
- IC50 ([2]; Homo sapiens, A673, 72 h, A673, 72 h (Table 9)): 4.57 µM
- IC50 ([2]; Homo sapiens, A2780, 72 h, A2780, 72 h (Table 9)): 4.93 µM
- IC50 ([2]; Homo sapiens, A-375, 72 h, A375, 72 h (Table 9)): 2.69 µM
- IC50 ([2]; Homo sapiens, A-431, 72 h, A431, 72 h (Table 9)): 2.87 µM
- IC50 ([2]; Homo sapiens, ACHN, 72 h, 72 h (Table 9)): 2.48 µM
- IC50 ([2]; Homo sapiens, ASPC1, 72 h, ASPC1, 72 h (Table 9)): 4.97 µM
- IC50 ([2]; Homo sapiens, BT-20, 72 h, BT20, 72 h (Table 9)): 2.79 µM
- IC50 ([2]; Homo sapiens, BXPC-3, 72 h, BXPC3, 72 h (Table 9)): 2.77 µM
- IC50 ([2]; Homo sapiens, C-33-A, 72 h, C33A, 72 h (Table 9)): 2.65 µM
- IC50 ([2]; Homo sapiens, CAKI-1, 72 h, CAKI1, 72 h (Table 9)): 0.69 µM
- IC50 ([2]; Homo sapiens, COLO 205, 72 h, COLO205, 72 h (Table 9)): 4.98 µM
- IC50 ([2]; Homo sapiens, COLO-678, 72 h, COLO678, 72 h (Table 9)): 3.11 µM
- IC50 ([2]; Homo sapiens, Ca-Ski, 72 h, CASKI, 72 h (Table 9)): 5.31 µM
- IC50 ([2]; Homo sapiens, Caco-2, 72 h, CACO2, 72 h (Table 9)): > 50 µM
- IC50 ([2]; Homo sapiens, Calu-6, 72 h, CALU6, 72 h (Table 9)): 5.3 µM
- IC50 ([2]; Homo sapiens, DLD-1, 72 h, DLD1, 72 h (Table 9)): > 50 µM
- IC50 ([2]; Homo sapiens, DU-145, 72 h, DU145, 72 h (Table 9)): 2.53 µM
- IC50 ([2]; Homo sapiens, EFO-21, 72 h, EFO21, 72 h (Table 9)): 4.62 µM
- IC50 ([2]; Homo sapiens, EJ-28, 72 h, EJ28, 72 h (Table 9)): 5.71 µM
- IC50 ([2]; Homo sapiens, Granta-519, 72 h, GRANTA-519, 72 h (Table 9)): 1.68 µM
- IC50 ([2]; Homo sapiens, HCT-15, 72 h, HCT15, 72 h (Table 9)): 5.9 µM
- IC50 ([2]; Homo sapiens, HCT-116, 72 h, HCT116, 72 h (Table 9)): 4.69 µM
- IC50 ([2]; Homo sapiens, HEK293, 72 h, HEK293, 72 h (Table 9)): 4.16 µM
- IC50 ([2]; Homo sapiens, HL-60, 72 h, HL-60, 72 h (Table 9)): 3.49 µM
- IC50 ([2]; Homo sapiens, HT-29, 72 h, HT29, 72 h (Table 9)): 4.63 µM
- IC50 ([2]; Homo sapiens, HT-1080, 72 h, HT1080, 72 h (Table 9)): 3.19 µM
- IC50 ([2]; Homo sapiens, HeLa, 72 h, 72 h (Table 9)): 2.98 µM
- IC50 ([2]; Homo sapiens, HepG2, 72 h, HEPG2, 72 h (Table 9)): 3.14 µM
- IC50 ([2]; Homo sapiens, Hs-578T, 72 h, HS578T, 72 h (Table 9)): 2.94 µM
- IC50 ([2]; Homo sapiens, IGROV-1, 72 h, IGROV1, 72 h (Table 9)): 3.03 µM
- IC50 ([2]; Homo sapiens, IMR-90, 72 h, IMR90, 72 h (Table 9)): 2.46 µM
- IC50 ([2]; Homo sapiens, JEG-3, 72 h, JEG3, 72 h (Table 9)): 3.95 µM
- IC50 ([2]; Homo sapiens, JIMT-1, 72 h, JIMT1, 72 h (Table 9)): 1.58 µM
- IC50 ([2]; Homo sapiens, K562, 72 h, K-562, 72 h (Table 9)): 4.46 µM
- IC50 ([2]; Homo sapiens, Kasumi 1, 72 h, KASUMI-1, 72 h (Table 9)): 0.96 µM
- IC50 ([2]; Homo sapiens, L-363, 72 h, L-363, 72 h (Table 9)): 3.21 µM
- IC50 ([2]; Homo sapiens, LoVo, 72 h, 72 h (Table 9)): 2.79 µM
- IC50 ([2]; Homo sapiens, MCF7, 72 h, MCF7, 72 h (Table 9)): > 50 µM
- IC50 ([2]; Homo sapiens, MDA-MB-231, 72 h, MDAMB231, 72 h (Table 9)): 2.56 µM
- IC50 ([2]; Homo sapiens, MDA-MB-435, 72 h, MDAMB435, 72 h (Table 9)): > 50 µM
- IC50 ([2]; Homo sapiens, MDA-MB-436, 72 h, MDAMB436, 72 h (Table 9)): 3.59 µM
- IC50 ([2]; Homo sapiens, MDA-MB-468, 72 h, MDAMB468, 72 h (Table 9)): 4 µM
- IC50 ([2]; Homo sapiens, MG-63, 72 h, MG63, 72 h (Table 9)): > 50 µM
- IC50 ([2]; Homo sapiens, MHH-ES-1, 72 h, MHHES1, 72 h (Table 9)): 3.51 µM
- IC50 ([2]; Homo sapiens, MIA PaCa-2, 72 h, MIAPACA2, 72 h (Table 9)): > 50 µM
- IC50 ([2]; Homo sapiens, MINO, 72 h, 72 h (Table 9)): 1.34 µM
- IC50 ([2]; Homo sapiens, MV4-11, 72 h, MV4-11, 72 h (Table 9)): 2.39 µM
- IC50 ([2]; Homo sapiens, NCI-H23, 72 h, NCI-H23, 72 h (Table 9)): 2.96 µM
- IC50 ([2]; Homo sapiens, NCI-H82, 72 h, NCIH82, 72 h (Table 9)): 2.73 µM
- IC50 ([2]; Homo sapiens, NCI-H292, 72 h, NCIH292, 72 h (Table 9)): 3.68 µM
- IC50 ([2]; Homo sapiens, NCI-H460, 72 h, NCIH460, 72 h (Table 9)): 3.31 µM
- IC50 ([2]; Homo sapiens, OVCAR-3, 72 h, OVCAR3, 72 h (Table 9)): 4.15 µM
- IC50 ([2]; Homo sapiens, OVCAR-4, 72 h, OVCAR4, 72 h (Table 9)): 3.1 µM
- IC50 ([2]; Homo sapiens, PANC-1, 72 h, PANC1, 72 h (Table 9)): > 50 µM
- IC50 ([2]; Homo sapiens, PLC-PRF-5, 72 h, PLCPRF5, 72 h (Table 9)): > 50 µM
- IC50 ([2]; Homo sapiens, Panc1005, 72 h, PANC1005, 72 h (Table 9)): 3.87 µM
- IC50 ([2]; Homo sapiens, Ramos, 72 h, 72 h (Table 9)): 1.88 µM
- IC50 ([2]; Homo sapiens, SAOS-2, 72 h, SAOS2, 72 h (Table 9)): 1.65 µM
- IC50 ([2]; Homo sapiens, SF-268, 72 h, SF268, 72 h (Table 9)): > 50 µM
- IC50 ([2]; Homo sapiens, SF-295, 72 h, SF295, 72 h (Table 9)): 2.91 µM
- IC50 ([2]; Homo sapiens, SK-BR-3, 72 h, SKBR3, 72 h (Table 9)): 1.76 µM
- IC50 ([2]; Homo sapiens, SK-HEP1, 72 h, SKHEP1, 72 h (Table 9)): 2.66 µM
- IC50 ([2]; Homo sapiens, SK-LMS-1, 72 h, SKLMS1, 72 h (Table 9)): 3.35 µM
- IC50 ([2]; Homo sapiens, SK-MEL-5, 72 h, SKMEL5, 72 h (Table 9)): 6.02 µM
- IC50 ([2]; Homo sapiens, SK-MEL-28, 72 h, SKMEL28, 72 h (Table 9)): 3.84 µM
- IC50 ([2]; Homo sapiens, SK-N-AS, 72 h, SKNAS, 72 h (Table 9)): 2.98 µM
- IC50 ([2]; Homo sapiens, SK-N-SH, 72 h, SKNSH, 72 h (Table 9)): 3.37 µM
- IC50 ([2]; Homo sapiens, SK-OV-3, 72 h, SKOV3, 72 h (Table 9)): 3.25 µM
- IC50 ([2]; Homo sapiens, SNB-75, 72 h, SNB75, 72 h (Table 9)): 3.27 µM
- IC50 ([2]; Homo sapiens, SU-DHL10, 72 h, SU-DHL-10, 72 h (Table 9)): 2.6 µM
- IC50 ([2]; Homo sapiens, SU-DHL-6, 72 h, SU-DHL-6, 72 h (Table 9)): 1.68 µM
- IC50 ([2]; Homo sapiens, SW-620, 72 h, SW620, 72 h (Table 9)): 3.81 µM
- IC50 ([2]; Homo sapiens, TE-671, 72 h, TE671, 72 h (Table 9)): > 50 µM
- IC50 ([2]; Homo sapiens, THP-1, 72 h, THP-1, 72 h (Table 9)): 2.93 µM
- IC50 ([2]; Homo sapiens, U2OS, 72 h, 72 h (Table 9)): 2.53 µM
- IC50 ([2]; Homo sapiens, U-87 MG, 72 h, U87MG, 72 h (Table 9)): 2.75 µM
- IC50 ([2]; Homo sapiens, UMUC3, 72 h, UMUC3, 72 h (Table 9)): 3.53 µM
- IC50 ([2]; Homo sapiens, UO-31, 72 h, UO31, 72 h (Table 9)): 4.71 µM
- IC50 ([2]; Homo sapiens, WSU-NHL, 72 h, 72 h (Table 9)): 3.17 µM
- IC50 ([2]; NCI-H358M, 72 h, NCIH358M, 72 h (Table 9)): 0.73 µM
- IC50 ([2]; PBMC, 72 h, 72 h (Table 9)): > 50 µM
- IC50 ([2]; RD-ES, 72 h, RDES, 72 h (Table 9)): 3.01 µM
